{"source": "patent US20160310472A1", "about": "“PHARMACEUTICAL COMPOSITIONS COMPRISING SULBACTAM AND IMIPENEM” (priority 2013, published 2016)", "key": {"[1]": {"test_system": "A. baumannii S-224 strain", "assay": "Time-kill study, viable bacterial count in broth, A. baumannii S-224", "type": "cell-based, Acinetobacter baumannii", "description": "(§1) The antibacterial activity of compositions according to the invention against various bacterial strains was investigated. In a typical study, freshly grown cultures were diluted to required cell density (initial starting inoculum) in Brain Heart Infusion broth medium (BD, USA). The antibacterial agents (either alone or in combination) in required concentrations were added into the culture containing medium. The samples were incubated under shaking conditions (120 rpm) at 37° C. Enumeration of viable bacterial count was undertaken, every 2 hours, by diluting in normal saline and plating on to Tryptic Soya Agar plates (BD, USA). The plates were incubated for 24 hours to arrive at a viable bacterial count.\nA. baumannii S-224 strain expresses both Class D beta-lactamases (OXA-51 and OXA-23 like) and Class B metalo-beta-lactamases (NDM)."}, "[2]": {"test_system": "A. baumannii S-12 strain", "assay": "Time-kill study, viable bacterial count in broth, A. baumannii S-12", "type": "cell-based, Acinetobacter baumannii", "description": "as §1"}, "[3]": {"test_system": "A. baumannii S-5 strain", "assay": "Mouse Systemic Infection Model", "settings": "agent alone; Swiss albino mice, subcutaneous TID from 1 hour post infection, survival over 10 days"}}, "data": [{"smiles": "C[C@@H](O)[C@H]1C(=O)N2C(C(=O)O)=C(SCCN=CN)C[C@H]12", "note": "[Imipenem]", "values": [{"measurement": "Bacterial count", "setting": "[1]; Imipenem 8 mcg/ml, 0 hour", "value": 6.74, "unit": "log CFU/ml"}, {"measurement": "Bacterial count", "setting": "[1]; Imipenem 8 mcg/ml, 2 hours", "value": 7.20, "unit": "log CFU/ml"}, {"measurement": "Bacterial count", "setting": "[1]; Imipenem 8 mcg/ml, 4 hours", "value": 8.11, "unit": "log CFU/ml"}, {"measurement": "Bacterial count", "setting": "[1]; Imipenem 8 mcg/ml, 6 hours", "value": 8.04, "unit": "log CFU/ml"}, {"measurement": "Bacterial count", "setting": "[1]; Imipenem 16 mcg/ml, 0 hour", "value": 6.74, "unit": "log CFU/ml"}, {"measurement": "Bacterial count", "setting": "[1]; Imipenem 16 mcg/ml, 2 hours", "value": 7.17, "unit": "log CFU/ml"}, {"measurement": "Bacterial count", "setting": "[1]; Imipenem 16 mcg/ml, 4 hours", "value": 8.04, "unit": "log CFU/ml"}, {"measurement": "Bacterial count", "setting": "[1]; Imipenem 16 mcg/ml, 6 hours", "value": 7.90, "unit": "log CFU/ml"}, {"measurement": "Bacterial count", "setting": "[2]; Imipenem 8 mcg/ml, 0 hour", "value": 6.87, "unit": "log CFU/ml"}, {"measurement": "Bacterial count", "setting": "[2]; Imipenem 8 mcg/ml, 2 hours", "value": 7.69, "unit": "log CFU/ml"}, {"measurement": "Bacterial count", "setting": "[2]; Imipenem 8 mcg/ml, 4 hours", "value": 8.27, "unit": "log CFU/ml"}, {"measurement": "Bacterial count", "setting": "[2]; Imipenem 8 mcg/ml, 6 hours", "value": 8.27, "unit": "log CFU/ml"}, {"measurement": "Bacterial count", "setting": "[2]; Imipenem 16 mcg/ml, 0 hour", "value": 6.87, "unit": "log CFU/ml"}, {"measurement": "Bacterial count", "setting": "[2]; Imipenem 16 mcg/ml, 2 hours", "value": 7.69, "unit": "log CFU/ml"}, {"measurement": "Bacterial count", "setting": "[2]; Imipenem 16 mcg/ml, 4 hours", "value": 8.11, "unit": "log CFU/ml"}, {"measurement": "Bacterial count", "setting": "[2]; Imipenem 16 mcg/ml, 6 hours", "value": 7.84, "unit": "log CFU/ml"}, {"measurement": "ED50", "setting": "[3]", "value": ">50", "unit": "mg/kg body weight"}, {"measurement": "ED90", "setting": "[3]", "value": ">50", "unit": "mg/kg body weight"}]}, {"smiles": "CC1(C)[C@H](C(=O)O)N2C(=O)C[C@H]2S1(=O)=O", "note": "[Sulbactam]", "values": [{"measurement": "Bacterial count", "setting": "[1]; Sulbactam 16 mcg/ml, 0 hour", "value": 6.74, "unit": "log CFU/ml"}, {"measurement": "Bacterial count", "setting": "[1]; Sulbactam 16 mcg/ml, 2 hours", "value": 6.65, "unit": "log CFU/ml"}, {"measurement": "Bacterial count", "setting": "[1]; Sulbactam 16 mcg/ml, 4 hours", "value": 7.17, "unit": "log CFU/ml"}, {"measurement": "Bacterial count", "setting": "[1]; Sulbactam 16 mcg/ml, 6 hours", "value": 7.27, "unit": "log CFU/ml"}, {"measurement": "Decrease in number of colony forming units (in words)", "setting": "[2]; S-12 strain", "value": "not observed"}, {"measurement": "Bacterial count", "setting": "[2]; Sulbactam 16 mcg/ml, 0 hour", "value": 6.87, "unit": "log CFU/ml"}, {"measurement": "Bacterial count", "setting": "[2]; Sulbactam 16 mcg/ml, 2 hours", "value": 5.84, "unit": "log CFU/ml"}, {"measurement": "Bacterial count", "setting": "[2]; Sulbactam 16 mcg/ml, 4 hours", "value": 5.27, "unit": "log CFU/ml"}, {"measurement": "Bacterial count", "setting": "[2]; Sulbactam 16 mcg/ml, 6 hours", "value": 6.23, "unit": "log CFU/ml"}]}]}
